Results on eleven molecules are retold here after ChEMBL document CHEMBL1201862, “PubChem BioAssay data set” (2004).

Molecules are shown by their SMILES.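 Following 48 hours of exposure in 96-well plates, responses at five concentrations were used to interpolate endpoints linearly. Abbreviation: GI50, concentration required for 50% inhibition of growth.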 Activity calls are given as the source filed them. Rule as the data show it: active = GI50 up to about 1.1 µM and inactive = higher.

Among the test systems are TK-10; SF-268; U-251; EKVX; OVCAR-8; HCT-15; HOP-92; SNB-19; CAKI-1; A498; SK-MEL-5; COLO 205; SN12C; OVCAR-4; KM12; UO-31; SK-MEL-28; NCI-H226.
Experiment in all cases: growth of human tumour cells (NCI), 48 h

Consider `CCCCC(C(=O)C(=O)NC1C2CC3CC(C2)CC1C3)C(=O)C(C)C` (stereo unspecified), for which the GI50 with TK-10 was > 100 µM (inactive); in the test with SF-268, > 100 µM (inactive); in the test on U-251, > 100 µM (inactive); in the test on EKVX, > 100 µM (inactive); in the test on OVCAR-8, > 100 µM (inactive); in the test on HCT-15 it was over 100 µM. The GI50 with HOP-92, in the test on SNB-19, in the test with CAKI-1, in the test on A498, with SK-MEL-5 and in the test with COLO 205 was > 100 µM (inactive) throughout. Also, the GI50 in the test on SN12C, with OVCAR-4, with KM12, in the test with UO-31, in the test on SK-MEL-28 and in the test with NCI-H226 was > 100 µM (inactive) each time.
Turning to `CCCN(CCCC(NC(C)=O)C(=O)NCc1ccccc1)C(=O)NC` (stereo unspecified), the GI50 in the test on TK-10 is > 100 µM (inactive); with SF-268 it was > 100 µM (inactive); in the test with U-251 it was > 100 µM (inactive); with EKVX, > 100 µM (inactive); with OVCAR-8 it was > 100 µM (inactive); in the test with HCT-15, over 100 µM. The GI50 in the test with HOP-92, with SNB-19, in the test with CAKI-1, in the test on A498, in the test with SK-MEL-5 and with COLO 205 was > 100 µM (inactive) in each case. The GI50 in the test with SN12C, with OVCAR-4, with KM12, in the test on UO-31, in the test with SK-MEL-28 and in the test on NCI-H226 was > 100 µM (inactive) in each case.
In the case of `COc1ccccc1NC(=O)C(CC(C(=O)Nc1ccccc1OC)/C(C)=N/Nc1ccc([N+](=O)[O-])cc1[N+](=O)[O-])/C(C)=N/Nc1ccc([N+](=O)[O-])cc1[N+](=O)[O-]` (stereo unspecified), the GI50 was 14.6 µM (inactive) in the test with TK-10; > 84.9 µM (inactive) in the test on SF-268; > 100 µM (inactive) with U-251; > 88.7 µM (inactive) in the test on EKVX; > 71 µM (inactive) with OVCAR-8; over 91.6 µM with HCT-15. Besides, the GI50 is 54.3 µM (inactive) in the test on HOP-92; > 100 µM (inactive) in the test with SNB-19; 41 µM (inactive) in the test with CAKI-1; 51.1 µM (inactive) in the test on A498; 31.6 µM (inactive) in the test with SK-MEL-5; 69 µM (inactive) with COLO 205. For the same molecule, the GI50 in the test on SN12C is > 100 µM (inactive); in the test on OVCAR-4, > 81.3 µM (inactive); with KM12, 58.5 µM (inactive); in the test with UO-31, 27 µM (inactive); in the test with SK-MEL-28 it was > 83.2 µM (inactive); in the test with NCI-H226 it was > 100 µM (inactive).
`NCC(=O)OCN1C(=O)C2C3C=CC(C2C1=O)C1C2C(=O)N(COC(=O)CN)C(=O)C2C31` (stereo unspecified): the GI50 is 53.1 µM (inactive) with TK-10; 23.4 µM (inactive) in the test on SF-268; 18.7 µM (inactive) with U-251; > 100 µM (inactive) with EKVX; 20.3 µM (inactive) in the test on OVCAR-8; 16.9 µM with HCT-15. For the same molecule, the GI50 was > 100 µM (inactive) in the test with HOP-92; 48.8 µM (inactive) with SNB-19; 32.9 µM (inactive) in the test on CAKI-1; 87.5 µM (inactive) with A498; 17.7 µM (inactive) with SK-MEL-5; 18.2 µM (inactive) in the test with COLO 205. Besides, the GI50 in the test with SN12C is 23.3 µM (inactive); with OVCAR-4, 26.1 µM (inactive); in the test on KM12, 20.8 µM (inactive); in the test on UO-31, 56.8 µM (inactive); in the test on SK-MEL-28 it was 19.5 µM (inactive); with NCI-H226 it was 39.5 µM (inactive).
With `NC(=S)N/N=C(/CC(=O)c1ccccc1)C(=O)Nc1ccc(Cl)c(Cl)c1`, the GI50 in the test with TK-10 is > 100 µM (inactive); with SF-268, > 100 µM (inactive); in the test with U-251 it was 59 µM (inactive); in the test with EKVX, 33 µM (inactive); in the test with OVCAR-8 it was 47.6 µM (inactive); with HCT-15 it was 43.3 µM. The GI50 with HOP-92 was 40 µM (inactive); in the test on SNB-19, 91.2 µM (inactive); with CAKI-1 it was 68.5 µM (inactive); in the test on A498, > 100 µM (inactive); in the test on SK-MEL-5 it was 41.7 µM (inactive); in the test with COLO 205, > 100 µM (inactive). Also, the GI50 with SN12C was > 100 µM (inactive); in the test on OVCAR-4, 57.3 µM (inactive); with KM12 it was 65.3 µM (inactive); in the test with UO-31, 51.2 µM (inactive); with SK-MEL-28, > 100 µM (inactive); in the test with NCI-H226 it was > 100 µM (inactive).
Consider `CC1C2=C(O)CC(C)(C)CC2=NC2=C1C(=O)CC(C)(C)C2` (stereo unspecified), for which the GI50 in the test on TK-10 was > 100 µM (inactive); with SF-268, > 100 µM (inactive); with U-251, > 100 µM (inactive); with EKVX, > 100 µM (inactive); in the test on OVCAR-8, > 100 µM (inactive); in the test on HCT-15, over 100 µM. In addition, the GI50 with HOP-92, in the test with SNB-19, with CAKI-1, with A498, in the test on SK-MEL-5 and with SN12C was > 100 µM (inactive) each time. Moreover, the GI50 with OVCAR-4, in the test on KM12, in the test on UO-31, in the test with SK-MEL-28 and with NCI-H226 was > 100 µM (inactive) throughout.
Regarding `CC1CC[C@]2(C(=O)O)CCC3(C)C(=CC(=O)C4[C@@]5(C)CCC(=O)C(C)(C)C5CC[C@]43C)[C@@H]2[C@H]1C` (stereo partly specified), the GI50 is 28.3 µM (inactive) with TK-10; 54.3 µM (inactive) in the test with SF-268; 27.4 µM (inactive) in the test on U-251; 31.6 µM (inactive) with EKVX; 29.4 µM (inactive) in the test on OVCAR-8; 25 µM (inactive) in the test with HOP-92. For the same molecule, the GI50 in the test on SNB-19 is 40.5 µM (inactive); in the test with CAKI-1, 39.8 µM (inactive); in the test on A498, 32.4 µM (inactive); in the test on SK-MEL-5, 20.7 µM (inactive); with COLO 205, 17.6 µM (inactive); in the test on SN12C it was 29.9 µM (inactive). In addition, the GI50 was 35.2 µM (inactive) in the test with OVCAR-4; 18.7 µM (inactive) in the test on KM12; 12.5 µM (inactive) in the test with UO-31; 18 µM (inactive) with SK-MEL-28; 25.2 µM (inactive) with NCI-H226.
On to `COc1ccc(OC(C(=O)O)c2ccccc2)c2c1CCCC2=O` (stereo unspecified), for which the GI50 is > 100 µM (inactive) in the test with TK-10; > 100 µM (inactive) in the test with SF-268; > 100 µM (inactive) with U-251; > 100 µM (inactive) in the test on EKVX; > 100 µM (inactive) with OVCAR-8; over 100 µM in the test on HCT-15. Also, the GI50 in the test with HOP-92, in the test on SNB-19, in the test with CAKI-1, in the test on A498, with SK-MEL-5 and in the test on COLO 205 was > 100 µM (inactive) throughout. Moreover, the GI50 with SN12C, with OVCAR-4, in the test with KM12, in the test with UO-31 and in the test on SK-MEL-28 was > 100 µM (inactive) each time.
Consider `CCCCCCCOc1ccc(/C=C\c2cc[n+](CCCCCCCC[n+]3ccc(/C=C\c4ccc(OCCCCCCC)cc4)cc3)cc2)cc1`, for which the GI50 with TK-10 was 23.9 µM (inactive); in the test with SF-268, 23.8 µM (inactive); in the test on U-251, 7.46 µM (inactive); in the test with EKVX, > 100 µM (inactive); in the test with OVCAR-8, 20.7 µM (inactive); in the test on HCT-15, 19.9 µM. For the same molecule, the GI50 is > 100 µM (inactive) in the test on HOP-92; 7.87 µM (inactive) in the test on SNB-19; 33.5 µM (inactive) with CAKI-1; 26.6 µM (inactive) in the test on A498; 14.6 µM (inactive) in the test on SK-MEL-5; 10.7 µM (inactive) in the test with COLO 205. The GI50 with SN12C is 20 µM (inactive); in the test on OVCAR-4, 21.6 µM (inactive); in the test with KM12, 15 µM (inactive); with UO-31, 19.5 µM (inactive); in the test on SK-MEL-28, 17.6 µM (inactive).
With `O=C(O)[C@@H]1CCCC[C@@H]1C(=O)N(C1CCCCC1)C1CCCCC1`, the GI50 in the test on TK-10 is > 100 µM (inactive); with SF-268, > 100 µM (inactive); with U-251 it was > 100 µM (inactive); in the test on EKVX, > 100 µM (inactive); in the test with OVCAR-8 it was > 100 µM (inactive); with HCT-15 it was over 100 µM. Moreover, the GI50 in the test on HOP-92, with CAKI-1, in the test with A498, in the test with SK-MEL-5, with COLO 205 and with SN12C was > 100 µM (inactive) each time. Besides, the GI50 in the test on OVCAR-4, with KM12, in the test on UO-31, with SK-MEL-28 and with NCI-H226 was > 100 µM (inactive) each time.
Regarding `CCC1(O)C(=O)OCc2c1cc1n(c2=O)Cc2cc3cc(OC)c(OC)cc3nc2-1` (stereo unspecified), the GI50 in the test on TK-10 is > 100 µM (inactive); with SF-268 it was 11.4 µM (inactive); with U-251, 6.52 µM (inactive); with EKVX, > 100 µM (inactive); with OVCAR-8 it was 82.4 µM (inactive); with HOP-92 it was > 100 µM (inactive). The GI50 is 16 µM (inactive) with SNB-19; 28.1 µM (inactive) in the test on A498; 17.5 µM (inactive) in the test on SK-MEL-5; 32.6 µM (inactive) with COLO 205; 5.5 µM (inactive) in the test with SN12C; > 100 µM (inactive) in the test with OVCAR-4. The GI50 is > 100 µM (inactive) in the test with KM12, 32 µM (inactive) in the test on UO-31, > 100 µM (inactive) in the test with SK-MEL-28 and 14.8 µM (inactive) in the test with NCI-H226.
